According to US5876676A, “Preservation of blood platelets” (priority 1996, dated 1999):
Starred links: 1 amine or outer side, 2 acyl side, 3 side chain; linkers in the order of their positions; H or OH if unused. Positions of bridges follow the written chain, without caps; N, C: chain ends. Non-standard residues stand in square brackets, D forms with d. Residues, ends and D or L forms follow the SMILES beside them. Trp(2-yl) = O=C([C@H](Cc1c([*:3])[nH]c2ccccc12)N[*:1])[*:2]; Leu(4R-OH,5-OH) = C[C@](O)(CO)C[C@H](N)C(=O)O; cisHyp = O=C(O)[C@@H]1C[C@H](O)CN1

How the values were obtained:
platelets [1] = experiment: Morphology and cytoskeleton of Quin-2-loaded platelets, resting or activated (light and electron microscopy); type: cell-based, human
Method: (§1) Human blood from healthy volunteers, drawn into 0.1 vol of Aster-Jandl anticoagulant, was centrifuged at 110 g for 10 min. The platelet-rich plasma was gel-filtered through a Sepharose 2B column equilibrated and eluted with a solution containing 145 mM NaCl, 10 mM Hepes, 10 mM glucose, 0.5 mM Na2 HPO4, 5 mM KCl, 2 mM MgCl2, and 0.3% BSA, pH 7.4 (platelet buffer). 2 U/ml apyrase was added to the platelet suspension and the cells were left standing for 60 min. at 37° C. as previously reported (Hartwig, J., and M. DeSisto, 1991 J. Cell Biol. 112:407-425; Hartwig, J., et al. 1989 J. Cell Biol. 109:1571-1579). To maintain cytosolic calcium at or below its resting level during cell activation, cells were loaded with 30 uM Quin-2AM during minutes 30-60 of the rest period. The effect of Quin-2 was reversed by the addition of 1 mM CaCl2 to the bathing media before centrifugation of the Quin 2-loaded cells onto the coverslips or after the cells had been attached and formed filopodia on the coverslip. Glass-adherent, Quin-2 loaded cells were also treated with 1 mM CaCL2 and 20 nM of the ionophore A23187 for 15 seconds (s) and then detergent permeabilized. In some cases, platelets were used directly from platelet-rich plasma by diluting it 1:20 with platelet buffer containing, in addition, 0.1 mM EGTA and 2 U/ml apyrase. The diluted cells were incubated for 30 min. at 37° C. to insure a resting state.
Platelet suspensions were activated by the addition of 1 U/ml of thrombin (hereafter called thrombin-activated) for 15-30 seconds in studies of nucleation activity. Activation was terminated by permeabilizing the cells as detailed below. Glass activation was used for the morphological studies. Cells were glass-activated by centrifugation onto polylysine-coated glass coverslips at 250 g for 5 min. Coverslips were placed in the bottom of multiwell plates (24 or 96 wells), covered with 0.25 ml of platelet suspension, and centrifuged at 37° C. in a Sorvall HB-6000 centrifuge using multiwell carriers.
Light microscopy and electron microscopy of platelets and cytoskeletons were performed according to standard methods, see e.g., Hartwig, J., 1992, J. Cell Biol. 118(6):1421-1442. The localization of gelsolin in platelets was performed by gold labeling of cytoskeletons from resting and activated cells with antibodies to gelsolin. The affinity-purified goat anti-rabbit macrophage gelsolin IgG was described earlier (Hartwig, J., and M. DeSisto, 1991 J. Cell Biol. 112:407-425; Hartwig, J., and P. Shevlin, 1986 J. Cell Biol. 103:1007-1020).

platelets [2] = experiment: Nucleation activity in lysates from Quin-2-loaded, thrombin-activated platelets; type: cell-based, human
Method: as §1, with “In some cases, platelets were used directly from platelet-rich plasma by diluting it 1:20 with platelet buffer containing, in addition, 0.1 mM EGTA and 2 U/ml apyrase. The diluted cells were incubated for 30 min. at 37° C. to insure a resting state.” left out
The effect of cell lysates on the rate and extent of pyrene-labeled rabbit skeletal muscle actin was determined as described previously (Hartwig, J., and P. Janmey, 1989 Biochim. Biophys. Acta. 1010:64-71). […] The relative contribution of nuclei with barbed or pointed ends in the cell lysates was determined by adding 2 uM cytochalasin B to the pyrene nucleation assay system. […] To determine if the measured stimulation of actin assembly and its decay with time was due to the growth of pyrene-actin addition onto cellular filaments subject to depolymerization in the diluted lysate, 0.1 uM phalloidin or phallacidin was added to the cell lysates during their preparation to stabilize the filaments. […] However, we also determined that the soluble phase from cells permeabilized with detergent in the presence of EGTA contained calcium dependent nucleation activity. […]

[3] = Quin-2-loaded platelets, glass activated

`CNc1ccc2oc(C[C@H]3O[C@@]4(CC[C@H]3C)O[C@H]([C@H](C)C(=O)c3ccc[nH]3)[C@H](C)C[C@H]4C)nc2c1C(=O)O` [A23187] was tested, and the “Cytoskeletons of Quin-2-loaded, glass-activated cells after external calcium plus ionophore” value (platelets [1]; added external calcium (1 mM CaCl2) with 20 nM A23187, within seconds) was “completely disrupted”.
For `COc1cc(N(CC(=O)OCOC(C)=O)CC(=O)OCOC(C)=O)c2nc(COc3cc(C)ccc3N(CC(=O)OCOC(C)=O)CC(=O)OCOC(C)=O)ccc2c1` [Quin-2AM, acetoxymethyl ester of quin-2], the “Effect on structure of resting cells and their cytoskeletons” value (platelets [1]; 30 uM Quin-2AM loading, light microscope) was “no effect” and the “Swelling, actin filament severing and extension of lamellipodial networks associated with platelet activation” value (platelets [1]; quin-2AM prior to activation with thrombin) was “prevented”.
`COc1cc(N(CC(=O)O)CC(=O)O)c2nc(COc3cc(C)ccc3N(CC(=O)O)CC(=O)O)ccc2c1` [Quin-2] was tested, and the “Rearrangements of gelsolin on activation (immunoelectron microscopy)” value (platelets [1]; Quin-2-loaded and activated cells) was “did not occur”, the Filopodia length (platelets [1]; [3]) was 2-5 um and the “Morphology after glass activation” value (platelets [1]; [3]) was “extend filopodia but not lamellipodia”. The activity at 30 µM (platelets [2]; Homo sapiens, Platelet, Quin-2-loaded, thrombin-activated, assayed immediately, read-out: Nucleation activity relative to lysates from untreated and activated cells) was 28% and the “Stability of nucleation activity in detergent lysates” value (platelets [2]; Quin-2-loaded cells, lysates incubated as long as 10 min before assay) was “no loss in its activity”.
For `C[C@@H]1NC(=O)[C@H](C[C@@](C)(O)CO)NC(=O)[C@@H]2Cc3c([nH]c4ccccc34)SC[C@H](NC(=O)[C@@H]([C@H](C)O)NC1=O)C(=O)N1C[C@@H](O)C[C@H]1C(=O)N[C@@H](C)C(=O)N2` [phalloidin] (cyclo(A[dT]C[cisHyp]A[Trp(2-yl)][Leu(4R-OH,5-OH)]); thioether 3-6), the “Effect on nucleation activity in lysates from Quin-2-loaded cells” value (platelets [2]; 0.1 uM phalloidin in lysates, Quin-2-loaded, thrombin-activated) was “no effect”.
